Four molecules from patent publication US11565992B2, “Methods for separation of azeotrope or azeotrope-like compositions of trifluoroiodomethane (CF3I) and trifluoroacetyl chloride (CF3COCI)” (Honeywell International Inc., priority 2020, dated 2023) can be followed below.

A short description of series [1]: Differential solubility in acetonitrile (PTx method, NRTL model). The following applies: at or near ambient conditions; for solubility in acetonitrile: solvent acetonitrile, from NRTL model generated from the PTx data (FIG. 7).
Excerpt: Static Vapor-Liquid Equilibrium Methods are a class of experimental techniques that can be used to identify thermodynamic interactions between a solvent (i.e. absorbing species) and a target solute (i.e. species being absorbed). One such technique, known as the PTx method, collects measurements of the total saturation pressure (“P”) exerted by mixtures of known compositions (“x”) at fixed temperatures (“T”) and cell volumes. […] Using data collected from the PTx experiment, as well as pure component properties of constituents of the mixtures, the thermodynamic properties of the mixtures can be accurately characterized by fitting the component's interaction parameters in a well-defined thermodynamic equation; one such equation is the Nonrandom, Two-liquid (NRTL) activity coefficient model by Renon and Prausnitz (Local Compositions in Thermodynamic Excess Functions for Liquid Mixtures, AIChE Journal, Vol. 14, January 1968, pp. 135-144).
(§1) From a well-characterized thermodynamic model (such as NRTL fit against PTx data), solubility curves can be generated. The solubility is defined as the liquid composition of the solute in the liquid phase at saturation, generally as a function of pressure and temperature. By comparing solubility curves for different solutes, the solvent's selectivity (i.e. preference) towards a particular solute can be identified; the larger the selectivity the more the solvent prefers to absorb one species while rejecting the other.
Following the same procedure as described in Example 7A, the PTx behavior of trifluoroiodomethane (CF3I) with acetonitrile and trifluoroacetyl chloride (CF3COCl) with acetonitrile was studied at temperatures of −10° C., 10° C., 30° C., and 50° C. […]
(§2) Using the NRTL model generated from the PTx data, the solubility of both trifluoroiodomethane (CF3I) and trifluoroacetyl chloride (CF3COCl) for a given temperature and pressure can be determined and compared.
Series [2] is described as follows: Differential solubility in toluene (PTx method, NRTL model). The following applies: around ambient conditions; for solubility in toluene: solvent toluene, from NRTL model generated from the PTx data (FIG. 5).
Excerpt: One such technique, known as the PTx method, collects measurements of the total saturation pressure (“P”) exerted by mixtures of known compositions (“x”) at fixed temperatures (“T”) and cell volumes. […] Using data collected from the PTx experiment, as well as pure component properties of constituents of the mixtures, the thermodynamic properties of the mixtures can be accurately characterized by fitting the component's interaction parameters in a well-defined thermodynamic equation; one such equation is the Nonrandom, Two-liquid (NRTL) activity coefficient model by Renon and Prausnitz (Local Compositions in Thermodynamic Excess Functions for Liquid Mixtures, AIChE Journal, Vol. 14, January 1968, pp. 135-144).
as §1
A set of volume calibrated PTx cells were used to measure the solubility characteristics of trifluoroiodomethane (CF3I) in toluene as well as trifluoroacetyl chloride (CF3COCl) in toluene. Mixtures of trifluoroiodomethane (CF3I) and toluene as well as trifluoroacetyl chloride (CF3COCl) and toluene were gravimetrically prepared into evacuated PTx cells. […] Once at equilibrium, recognized when temperature and pressures of each cell remain stable for several hours, the local temperature and saturation pressures of each cell were recorded and adjustments for the next set point were made. […]
as §2
Series [3] can be described thus: Differential solubility in mineral oil (PTx method, NRTL model). The following applies: solvent mineral oil; at or near ambient conditions; from NRTL model generated from the PTx data (FIG. 6).
Excerpt: as §1
Following the same procedure described in Example 7A, the PTx behavior of trifluoroiodomethane (CF3I) with mineral oil and trifluoroacetyl chloride (CF3COCl) with mineral oil was studied at temperatures of 0° C., 20° C., 40° C., and 60° C. Unlike toluene (a single aromatic hydrocarbon entity), the mineral oil solvent comprised a mixture several types of hydrocarbons such as alkanes, cycloalkanes, and others. From the pressure-temperature-composition data, the binary interaction parameters of trifluoroiodomethane (CF3I) with mineral oil and trifluoroacetyl chloride (CF3COCl) with mineral oil for the NRTL activity coefficient model were identified.
as §2

On to `CC#N` [acetonitrile], for which the “selectivity of solvent towards CF3I over CF3COCl” value in series [1] (acetonitrile) was “about 2.5 times”.

With `Cc1ccccc1` [toluene], in series [2] (toluene), the “selectivity of solvent towards CF3I over CF3COCl” value is “about 3.5 times”.

Consider `O=C(Cl)C(F)(F)F` [trifluoroacetyl chloride], for which, in series [2], the solubility in toluene entry is listed as “about 11.6 mass %”. In addition, the “solubility in mineral oil” value in series [3] is “about 3.6 mass %”. For the same molecule, in series [1], the solubility in acetonitrile result is recorded as “about 15.8 mass %”.

As to `FC(F)(F)I` [trifluoroiodomethane], the solubility in toluene result in series [2] is “about 40.8 mass %”. In series [3], the “solubility in mineral oil” value is given as “about 12.2 mass %”. Further, the solubility in acetonitrile entry in series [1] is listed as “about 39.0 mass %”.
